# Literature values, collected in patent US12171869B2, “Intracameral drug delivery depots” (Incept, LLC., priority 2016, dated 2024).
# Several values for one entry are separate records, joined by “and”; a condition that tells them apart may be missing. Equal entries are not always repeated.
# What was measured:
# [1] = intracameral administration, clinical studies (Charters 2016); 10 μg dose
# [2] = eye drop studies in humans (Faulkner et al., 2010; Martinez-de-la-Casa et al., 2012)
# beagle = conditions: 0.004% once a day, normal healthy beagles, 5 treatment days (Carvalho et al., 2006)
smiles,measurement,setting,value
CCNC(=O)CCC/C=C\C[C@@H]1[C@@H](/C=C/[C@@H](O)CCc2ccccc2)[C@H](O)C[C@@H]1O [bimatoprost],duration of IOP reduction,[1],up to 4 months
O=C(O)CCC/C=C\C[C@@H]1[C@@H](/C=C/[C@@H](O)COc2cccc(C(F)(F)F)c2)[C@H](O)C[C@@H]1O [travoprost free acid],travoprost free acid Cmax,[2],~2 ng/mL and ~3 ng/mL
"CC(C)OC(=O)CCC/C=C\C[C@@H]1[C@@H](/C=C/[C@@H](O)COc2cccc(C(F)(F)F)c2)[C@H](O)C[C@@H]1O [travoprost, isopropyl (Z)-7-[(1R,2R,3R,5 S)-3,5-dihydroxy-2-[(1E,3R)-3-hydroxy-4-[(α,α,α-trifluoro-m-tolyl)oxy]-1-butenyl]cyclopentyl]-5-heptenoate]",hyperemia,beagle,hyperemia for the entire treatment period
